Here are results for six compounds from patent US6380202B1, “Fungicidal fluoro-substituted 7-heterocyclyl-triazolopyrimidines” (BASF Aktiengesellschaft, priority 1998, dated 2002).

Converted amounts (≈) assume the structure as drawn. “And” between values parts separate entries of the source, which are not always exact repeats. Equal entries are not always repeated. Where two headings read alike, the source gives them in different places.

The test system of test [1] is Magnaporthe grisea f. sp. oryzae. The class given is cell-based. The following applies: total inhibition of mycelial growth; V8 nutrient solution; 6-12 days incubation, 18-25° C.; visual inspection.
For another test, the system named is Alternaria solani. It counts as cell-based.
Test [2] deals with Erysiphe graminis DC. f.sp. tritici E. Marchal. The following applies: in vivo.
The next test has as its system Pyrenophora teres. It counts as cell-based.
The next test concerns Phytophthora infestans. The class given is cell-based. The conditions noted are these: total inhibition of mycelial growth; V8 nutrient solution; 6-12 days incubation, 18-25° C.; visual inspection.
The next test relates to Rhizoctonia solani. It counts as cell-based.
Test [3] relates to Leptosphaeria nodorum. Briefly: Greenhouse test, Wheat Septoria nodorum (WSN). The following applies: Foliar application, 2 day residual (inoculation 2 days after application).
The test system of test [4] is Leptosphaeria nodorum. Put plainly: MIC serial dilution test, Leptosphaeria nodorum (LEPTNO). The class given is cell-based.
The test system of another test is Botrytis cinerea. It counts as cell-based.
The next test deals with Puccinia recondita. The conditions noted are these: in vivo.
Setting [5] is: […], V8 nutrient solution, 6-12 days incubation, 18-25° C., visual inspection.
Setting [6] is: total inhibition of mycelial growth, V8 nutrient solution, 6-12 days incubation, 18-25° C., visual inspection.

Regarding `Fc1cc(F)c(-c2c(Cl)nc3ncnn3c2N2CCC(F)CC2)c(F)c1` [Example 1, 5-chloro-7-(4-fluoropiperid-1-yl)-6-(2,4,6-trifluorophenyl)-1,2,4-triazolo[1,5a]pyrimidine], in [1], the “MIC (Minimum Inhibitory Concentration) PYRIOR” value is 1.56 mg/mL (≈ 4.04 mM). Moreover, the “MIC (Minimum Inhibitory Concentration) ALTESO” value against Alternaria solani (setting [5]) came to 0.2 mg/mL (≈ 0.518 mM). Also, in [2], the “Disease control (% efficacy) WPM 2 da R” value is 88% and 100%. Moreover, the “MIC (Minimum Inhibitory Concentration) PYRNTE” value in the test on Pyrenophora teres turned out to be 1.56 mg/mL (≈ 4.04 mM). In addition, the “MIC (Minimum Inhibitory Concentration) PHYTIN” value with Phytophthora infestans is 50 mg/mL (≈ 130 mM). The “MIC (Minimum Inhibitory Concentration) RHIZSO” value with Rhizoctonia solani (setting [5]) amounted to 12.5 mg/mL (≈ 32.4 mM). The “Disease control (% efficacy) WSN 2 da R” value with Leptosphaeria nodorum [3] (25 ppm) came to 54%; in the test with Leptosphaeria nodorum [3] (100 ppm) it was 100%. Besides, the “MIC (Minimum Inhibitory Concentration) LEPTNO” value against Leptosphaeria nodorum [4] (setting [6]) was 12.5 mg/mL (≈ 32.4 mM). Moreover, the “MIC (Minimum Inhibitory Concentration) BOTRCI” value against Botrytis cinerea (setting [5]) turned out to be 3.13 mg/mL (≈ 8.11 mM).
Turning to `FCC1CCN(c2c(-c3c(F)cccc3Cl)c(Cl)nc3ncnn23)CC1` [Example 2, 5-chloro-7-(4-fluoromethylpiperid-1-yl)-6-(2-chloro-6-fluorophenyl)-1,2,4-triazolo[1,5a]pyrimidine], in [1], the “MIC (Minimum Inhibitory Concentration) PYRIOR” value came out at 0.78 mg/mL (≈ 1.96 mM). Further, the “MIC (Minimum Inhibitory Concentration) ALTESO” value in the test on Alternaria solani (setting [5]) was 0.39 mg/mL (≈ 0.979 mM). For the same compound, the “MIC (Minimum Inhibitory Concentration) PYRNTE” value in the test on Pyrenophora teres (setting [5]) is 3.13 mg/mL (≈ 7.86 mM). Further, in the test on Phytophthora infestans, the “MIC (Minimum Inhibitory Concentration) PHYTIN” value was greater than 100 mg/mL. Besides, in the test with Rhizoctonia solani (setting [5]), the “MIC (Minimum Inhibitory Concentration) RHIZSO” value is greater than 100 mg/mL. Besides, the “Disease control (% efficacy) WLR 2 da R” value in the test on Puccinia recondita was 100%. For the same compound, the “Disease control (% efficacy) WSN 2 da R” value in the test with Leptosphaeria nodorum [3] (25 ppm) came out at 17%; with Leptosphaeria nodorum [3] (100 ppm), 83%. Besides, the “MIC (Minimum Inhibitory Concentration) LEPTNO” value in the test with Leptosphaeria nodorum [4] (setting [6]) was greater than 100 mg/mL. In addition, the “MIC (Minimum Inhibitory Concentration) BOTRCI” value in the test on Botrytis cinerea (setting [5]) worked out at 3.13 mg/mL (≈ 7.86 mM).
Take `Fc1cccc(Cl)c1-c1c(Cl)nc2ncnn2c1N1CCCC(F)C1` (stereo not drawn) [Example 3, 5-chloro-6-(2-chloro-6-fluorophenyl)-7-N-(3-fluoropiperid-1-yl)-[1,2,4]triazolo[1,5-a]pyrimidine]: the “MIC (Minimum Inhibitory Concentration) PYRIOR” value in test [1] turned out to be 6.25 mg/mL (≈ 16.3 mM). In addition, in the test on Alternaria solani, the “MIC (Minimum Inhibitory Concentration) ALTESO” value came out at 6.25 mg/mL (≈ 16.3 mM). In addition, the “MIC (Minimum Inhibitory Concentration) PYRNTE” value in the test with Pyrenophora teres was 6.25 mg/mL (≈ 16.3 mM). Moreover, the “MIC (Minimum Inhibitory Concentration) PHYTIN” value in the test with Phytophthora infestans was greater than 100 mg/mL. Also, the “MIC (Minimum Inhibitory Concentration) RHIZSO” value in the test with Rhizoctonia solani (setting [5]) was determined as 50 mg/mL (≈ 130 mM). Besides, the “Disease control (% efficacy) WSN 2 da R” value in the test with Leptosphaeria nodorum [3] (25 ppm) is given as 0%; in the test on Leptosphaeria nodorum [3] (100 ppm), 92%. Besides, the “MIC (Minimum Inhibitory Concentration) LEPTNO” value against Leptosphaeria nodorum [4] (setting [6]) amounted to 50 mg/mL (≈ 130 mM). Further, the “MIC (Minimum Inhibitory Concentration) BOTRCI” value against Botrytis cinerea (setting [5]) came out at 12.5 mg/mL (≈ 32.5 mM).
Consider `Fc1c(F)c(F)c(-c2c(Cl)nc3ncnn3c2N2CCCC(F)C2)c(F)c1F` (stereo not drawn) [Example 4, 5-chloro-7-N-(3-fluoropiperid-1-yl)-6-(pentafluorophenyl)-[1,2,4]triazolo[1,5-a]pyrimidine], for which the “MIC (Minimum Inhibitory Concentration) PYRIOR” value in [1] was found to be 1.56 mg/mL (≈ 3.7 mM). In addition, the “MIC (Minimum Inhibitory Concentration) ALTESO” value with Alternaria solani (setting [5]) was 3.13 mg/mL (≈ 7.42 mM). For the same compound, the “MIC (Minimum Inhibitory Concentration) PYRNTE” value in the test on Pyrenophora teres (setting [5]) came to 12.5 mg/mL (≈ 29.6 mM). In the test with Phytophthora infestans, the “MIC (Minimum Inhibitory Concentration) PHYTIN” value came out at 100 mg/mL (≈ 237 mM). In addition, the “MIC (Minimum Inhibitory Concentration) RHIZSO” value in the test on Rhizoctonia solani (setting [5]) amounted to 6.25 mg/mL (≈ 14.8 mM). The “Disease control (% efficacy) WSN 2 da R” value in the test on Leptosphaeria nodorum [3] (25 ppm) and in the test with Leptosphaeria nodorum [3] (100 ppm) was 0% each time. Besides, the “MIC (Minimum Inhibitory Concentration) LEPTNO” value against Leptosphaeria nodorum [4] (setting [6]) was found to be 50 mg/mL (≈ 119 mM). In addition, in the test with Botrytis cinerea (setting [5]), the “MIC (Minimum Inhibitory Concentration) BOTRCI” value was determined as 12.5 mg/mL (≈ 29.6 mM).
For `Fc1cccc(Cl)c1-c1c(Cl)nc2ncnn2c1N1CCC(F)(F)CC1` [Example 5, 5-chloro-6-(2-chloro-6-fluorophenyl)-7-N-(4,4-difluoropiperid-1-yl)-[1,2,4]triazolo[1,5-a]pyrimidine], the “MIC (Minimum Inhibitory Concentration) PYRIOR” value in test [1] was 0.2 mg/mL (≈ 0.497 mM). In addition, in the test with Alternaria solani (setting [5]), the “MIC (Minimum Inhibitory Concentration) ALTESO” value was less than 0.05 mg/mL. For the same compound, the “Disease control (% efficacy) WPM 2 da R” value in [2] was 74% and 94% and 84%. Further, in the test with Pyrenophora teres (setting [5]), the “MIC (Minimum Inhibitory Concentration) PYRNTE” value was found to be 3.13 mg/mL (≈ 7.78 mM). Further, the “MIC (Minimum Inhibitory Concentration) PHYTIN” value in the test with Phytophthora infestans is greater than 100 mg/mL. For the same compound, the “MIC (Minimum Inhibitory Concentration) RHIZSO” value against Rhizoctonia solani (setting [5]) is greater than 100 mg/mL. Further, in the test on Puccinia recondita, the “Disease control (% efficacy) WLR 2 da C” value is 10% and 0%. Besides, the “Disease control (% efficacy) WSN 2 da R” value in the test with Leptosphaeria nodorum [3] (25 ppm) came out at 36%; in the test with Leptosphaeria nodorum [3] (100 ppm), 98%. Moreover, the “MIC (Minimum Inhibitory Concentration) LEPTNO” value in the test with Leptosphaeria nodorum [4] (setting [6]) amounted to 12.5 mg/mL (≈ 31.1 mM). Also, the “MIC (Minimum Inhibitory Concentration) BOTRCI” value against Botrytis cinerea (setting [5]) was found to be 50 mg/mL (≈ 124 mM).
For the compound `FCC1CCN(c2c(-c3c(F)cc(F)cc3F)c(Cl)nc3ncnn23)CC1` [Example 6, 5-chloro-7-N-(4-fluoromethylpiperid-1-yl)-6-(2,4,6-trifluorophenyl)-[1,2,4]triazolo[1,5-a]pyrimidine], the “MIC (Minimum Inhibitory Concentration) PYRIOR” value in test [1] was determined as 0.78 mg/mL (≈ 1.95 mM). Also, the “MIC (Minimum Inhibitory Concentration) ALTESO” value in the test with Alternaria solani turned out to be 0.39 mg/mL (≈ 0.976 mM). In the test on Pyrenophora teres, the “MIC (Minimum Inhibitory Concentration) PYRNTE” value came to 3.13 mg/mL (≈ 7.83 mM). In the test with Phytophthora infestans, the “MIC (Minimum Inhibitory Concentration) PHYTIN” value is greater than 100 mg/mL. Also, the “MIC (Minimum Inhibitory Concentration) RHIZSO” value against Rhizoctonia solani was greater than 100 mg/mL. Also, in the test with Puccinia recondita, the “Disease control (% efficacy) WLR 2 da C” value was 100% and 98%; the “Disease control (% efficacy) WLR 2 da R” value is 100%. Further, the “Disease control (% efficacy) WSN 2 da R” value with Leptosphaeria nodorum [3] (25 ppm) was 63%. Besides, in the test on Leptosphaeria nodorum [3] (100 ppm), the “Disease control (% efficacy) WSN 2 da R” value came to 99%. Besides, the “MIC (Minimum Inhibitory Concentration) LEPTNO” value against Leptosphaeria nodorum [4] is greater than 100 mg/mL. Besides, in the test with Botrytis cinerea, the “MIC (Minimum Inhibitory Concentration) BOTRCI” value was 3.13 mg/mL (≈ 7.83 mM).
